From patent US8846880B2, “Synthetic analogues of phosphatidyl-myo-inositol mannosides with an inhibitory activity of the inflammatory response” (Centre National de la Recherche Scientifique—CNRS—, priority 2008, dated 2014) come the findings set out here.

In one data set the test system is TNF-α. The experiment in a line: TNF-α secretion by LPS-stimulated bone-marrow-derived primary macrophages (ELISA). The data set is classed as cell-based, mouse. Conditions: LPS 100 ng/ml, 24 hours. How it is done: (§1) Murine bone marrow cells were obtained from femurs of wild-type mouse lines. The cells obtained were cultured (10^6/ml) for 7 days in DMEM medium (Dulbecco's modified Eagle's medium) supplemented with 20% of horse serum and 30% of L929 cell-conditioned medium. Three days after renewal of the medium, the cell preparation comprises a homogeneous population of macrophages.
(§2) The macrophages derived from the bone marrow of wild-type mice were cultured on 96-well culture plates in the proportion of 10^5 cells per well, and were then stimulated with LPS (100 ng/ml, Escherichia. coli, serotype O111:B4, Sigma) with or without PIM analog (1-10 μg/ml). All the freeze-dried PIM analog preparations used are solubilized in DMSO and added to the cultures at a noncytotoxic maximum final concentration of 1%.
(§3) After stimulation for 24 hours, the culture supernatants were collected and analyzed for their content of TNF-α, IL-6, IL-12p40 and KC cytokines by ELISA (Duoset, R&D) and for their nitrite content by means of the Griess reaction.
(§4) The macrophages derived from the bone marrow of wild-type mice were cultured on 96-well culture plates in a proportion of 10^5 cells per well, and then stimulated with LPS (100 ng/ml, Escherichia coli, serotype […], Sigma) with isoPIM1C16C18 (SFPIM219) (1-10 μg/ml) or a DMSO control. The preparation of freeze-dried SFPIM219 which is used is solubilized in DMSO and added to the cultures at a noncytotoxic maximum final concentration of 1%.
(§5) After stimulation for 24 hours, the culture supernatents were collected and analyzed for their content of cytokines TNF-α or IL-12p40 by ELISA (R&D Duoset, Minneapolis, Mo.). The results correspond to the mean±SD of n=2 mice per genotype.
(§6) The macrophages derived from the bone marrow of wild-type mice were cultured on 96-well culture plates in a proportion of 10^5 cells per well, and then stimulated with LPS (100 ng/ml, Escherichia coli, serotype O111:B4, Sigma) with PIM1 (SFPIM145), isoPIM1C16C18 (SFPIM219) or the compounds PIM-2-mimNCOCF3 (SFPIM324 t2) and PIM-2-mimNH(SFPIM324 t8) (titrated at 1, 3, 10, 30 μg/ml) or DMSO controls. The freeze-dried SFPIM145, SFPIM219, SFPIM324 t2 and SFPIM324 t8 preparations that were used are solubilized in DMSO and added to the cultures at a noncytotoxic maximum final concentration of 1%.

The subject of a further data set is IL-12p40. The experiment in a line: IL-12p40 secretion by LPS-stimulated primary macrophages (ELISA). It is filed as cell-based, mouse. The procedure:
as §1, §2, §3, §4, §5, §6

The subject of the next data set is macrophages. The experiment in a line: MTT cytotoxicity / cell viability assay on the same macrophages. The data set is classed as cell-based, mouse.
In another data set the test system is IL-6. The experiment in a line: IL-6 expression by primary macrophages stimulated with LPS with or without IFNγ (ELISA). The data set is classed as cell-based, mouse. The conditions noted are these: LPS in the presence or absence of interferon-γ, 10 μg/ml (FIG. 5). How it is done:
as §1, §2, §3
Background: In an ELISA, binding on a coated surface is turned into a signal by an enzyme label.

The test system of data set [1] is KC. The experiment in a line: Chemokine KC production by LPS-stimulated macrophages (ELISA). It is filed as cell-based, mouse. Conditions: 10 μg/ml (FIG. 7). How it is done: as §1, §2, §3
Data set [2] relates to C57BL/6 mice. The experiment in a line: In vivo model of respiratory distress: Penh by noninvasive plethysmography after intranasal LPS. More on the design: species or system mouse. The procedure:
(§7) C57BL/6 mice received the vehicle alone (saline with 1.25% DMSO) or LPS (1 μg per mouse) from Escherichia coli (serotype […]; Sigma, St Louis, Mo., USA) in the absence or in the presence of PIM1 (SFPIM135) or of isoPIM1-2C16 (SFPIM91) (50 μg/mouse), applied by nasal instillation in a volume of 40 μl under light anesthesia with ketamine-xylazine.
The resistance of the respiratory tracts was evaluated by noninvasive plethysmography over a period of 3 hours after the application of LPS. Awake mice were placed in plethysmography chambers (EMKA Technologies, Paris, France). The increase in respiratory pause (Penh), as measurement of respiratory discomfort, was recorded and analyzed using the Datanalyst Software (EMKA Technologies, Paris, France), and expressed as mean±SEM of Penh of n=2-3 individual mice per group.
TNF is essential for LPS-induced acute respiratory dysfunction, as has been shown in TNF-deficient mice. In order to determine the potential in vivo activity of PIM1 (SFPIM135) and isoPIM1-2C16 (SFPIM91), they were tested for their inhibitory activity in a murine model of acute pulmonary inflammation and respiratory distress induced by intranasal application of LPS (1 μg/mouse).
C57BL/6 mice received an intranasal application of 1 μg of LPS, and Penh was recorded for 200 minutes using noninvasive plethysmography. […]

Data set [3] relates to C57BL/6 mice. The experiment in a line: Inflammatory cell recruitment in bronchoalveolar lavage after intranasal LPS. It is filed as in vivo, mouse. The procedure: as §7
(§8) The BAL fluid is collected by canulating the trachea and washing the lungs four times with 0.5 ml of cold PBS. After centrifugation at 400×g for 10 min at 4° C., the supernatant from the first lavage is stored at −70° C. for the cytokine analysis. Pools of cell pellets are counted with Trypan blue (Sigma) in a hemocytometer cell. For differential counting, the cells are stained with Diff-Quik Staining (Merz & Dade AG., Dudingen, Switzerland). Two times one hundred cells are counted.

In data set [4] the test system is KC. Kind of data set: KC in bronchoalveolar lavage fluid after intranasal LPS (ELISA). Conditions: 24 hours after intranasal 1 μg LPS, coadministration 50 μg/mouse (FIG. 10). The data set is classed as in vivo. How it is done: as §7, §8
(§9) The TNF and KC concentrations were evaluated by enzyme-linked immunosorbent assay (ELISA) in accordance with the instructions of the manufacturer (R&D Duoset, Minneapolis, Mo.).
Neutrophil recruitment depends on various factors, including chemokine KC, even though it is not critically dependent on TNF [23]. In FIG. 10, the treated mice are sacrificed 24 hours after the intranasal application of 1 μg of LPS and the bronchoalveolar fluid is analyzed in order to determine the chemokine KC content. […]

The subject of another data set is TNF. The experiment in a line: TNF in bronchoalveolar lavage fluid after intranasal LPS (ELISA). It is filed as in vivo. Conditions: coadministration 50 μg/mouse (FIG. 11). The procedure: as §7, §8, §9
In data set [5] the test system is inflammatory cytokines and chemokines. The experiment in a line: Additional experiments: inflammatory cytokines and chemokines in lungs exposed to endotoxins. It is filed as in vivo.
Setting [6] is: titrated at 1, 3, 10, 30 μg/ml (FIG. 15).

Take `CCCCCCCCCCCCCCCCCC(=O)OC[C@@H](COP(=O)(O)OC1C(O[C@H]2O[C@H](CO)[C@@H](O)[C@H](O)[C@@H]2O)CN(C(=O)C(F)(F)F)CC1O[C@H]1O[C@H](CO)[C@@H](O)[C@H](O)[C@@H]1O)OC(=O)CCCCCCCCCCCCCCC` (stereo partly shown) [PIM-2-mimNCOCF3]: in the data set on TNF-α (setting [6]), the TNF secretion entry is recorded as “strongly inhibit”. For the same compound, the “IL-12p40 secretion in response to LPS” value in the data set with IL-12p40 (10 μg/ml (FIG. 17)) is on record as “virtually abolished”.
As for “1-O-α-D-mannopyranosyl-2-O—[((S)-2,3-dipalmitoyloxy-propyl)phosphoryl]-D-myo-inositol [isoPIM1-2C16]”, the “TNF-α synthesis induced in LPS-stimulated macrophages” value in the data set with TNF-α (titrated at 1, 3 and 10 μg/ml (FIG. 3)) is “strongly inhibits”. Also, the “cytotoxicity (MTT)” value in the data set on macrophages (titrated at 1, 3 and 10 μg/ml (FIG. 4)) was “absence of cytotoxicity”. Further, the “expression of IL-6 by the macrophages” value in the data set with IL-6 is reported as “also inhibited”. The “IL-12p40 secretion in response to LPS” value in the data set with IL-12p40 (1 μg/ml (FIG. 6)) is listed as “inhibition”. Also, in the data set on KC [1], the “production of chemokine KC” value is reported as “more strongly”. The “enhancement of Penh induced by LPS” value with C57BL/6 mice [2] (50 μg/mouse with LPS 1 μg/mouse, nasal instillation (FIG. 8)) was “even more pronounced”. Further, in the data set with C57BL/6 mice [2] (summary of the in vivo experiments), the “pulmonary inflammation and resistance of the respiratory tracts in response to local endotoxins” value was “marked inhibition”. In addition, the “number of inflammatory cells detected in the BAL” value in the data set on C57BL/6 mice [3] (18 hours after application of LPS, 50 μg/mouse intranasal (FIG. 9)) is given as “partially reduced”. Also, the “reduction in the number of neutrophils” value in the data set with C57BL/6 mice [3] (BAL, observed in 2 mice out of 3, 50 μg/mouse intranasal) is given as at most 70%. Besides, the “secretion of KC in the bronchoalveolar space” value in the data set with KC [4] is “greatly reduced”. Further, the “release of TNF in the bronchoalveolar space” value in the data set on TNF is reported as “more strongly”. The “expression of several other inflammatory cytokines and chemokines in lungs exposed to endotoxins” value in data set [5] was “decrease in expression”.
Turning to `CCCCCCCCCCCCCCCCCC(=O)OC[C@H](COP(=O)(O)O[C@@H]1[C@H](O)[C@@H](O)[C@H](O)[C@@H](O)[C@@H]1OC1O[C@H](CO)[C@@H](O)[C@H](O)[C@@H]1O)OC(=O)CCCCCCCCCCCCCCC` (stereo partly drawn) [isoPIM1-C16C18, 1-O-α-D-mannopyranosyl-2-O—[((S)-2-O-hexadecanoyl-3-O-octadecanoylpropyl)phosphoryl]-D-myo-inositol], the TNF secretion entry with TNF-α (1-10 μg/ml (FIG. 12)) is reported as “strongly inhibits”; in the data set with TNF-α (setting [6]), “strongly inhibit”. For the same compound, in the data set on macrophages (titrated at 1, 3 and 10 μg/ml (FIG. 13)), the “cytotoxicity on macrophages (MTT)” value is “lack of cytotoxicity”. Further, the “IL-12p40 secretion in response to LPS” value in the data set with IL-12p40 (1 μg/ml (FIG. 14)) is given as “greatly inhibited”; in the data set on IL-12p40 (10 μg/ml (FIG. 17)) it was “virtually abolished”.
Turning to `CCCCCCCCCCCCCCCCCC(=O)OC[C@@H](COP(=O)(O)O[C@@H]1[C@@H](O[C@H]2O[C@H](CO)[C@@H](O)[C@H](O)[C@@H]2O)CNC[C@H]1O[C@H]1O[C@H](CO)[C@@H](O)[C@H](O)[C@@H]1O)OC(=O)CCCCCCCCCCCCCCC` [PIM-2-mimNH], in the data set on TNF-α (setting [6]), the TNF secretion entry is “inhibit less strongly”. The “cytotoxicity (MTT cell viability)” value with macrophages (at the highest concentration (FIG. 16)) is on record as “a certain cytotoxicity”. Also, the “IL-12p40 secretion in response to LPS” value in the data set on IL-12p40 (10 μg/ml (FIG. 17)) was “partially inhibit”.
